Measurements taken from publication PMC11249646, “Small-Molecule Disruptors of the Interaction between Calcium- and Integrin-Binding Protein 1 and Integrin αIIbβ3 as Novel Antiplatelet Agents” (ACS Pharmacology & Translational Science, 2024).
Where two headings read alike, the source gives them in different places.

Assays:
[1] = target: T1, CIB1 and αIIb interaction (CIB1-GST : F-αIIb peptide) (Homo sapiens, UniProt Q99828); assay: FP assay, 1536-well qHTS format (primary and confirmatory screen); format: binding; details: for Curve Class (confirmatory screen) / CONFIRMATORY SCREEN Curve Class: qHTS curve class; for Curve Class: several classes where COUNT > 1
T1 construct: made in house; host or cells: BL-21 plus RIL cells (E. coli)
T1 sequence (Q99828 1-191): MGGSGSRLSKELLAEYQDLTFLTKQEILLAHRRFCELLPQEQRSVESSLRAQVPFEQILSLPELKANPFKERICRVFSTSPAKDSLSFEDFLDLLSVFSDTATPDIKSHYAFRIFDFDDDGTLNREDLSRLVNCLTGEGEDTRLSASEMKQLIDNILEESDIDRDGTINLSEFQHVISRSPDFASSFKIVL

[2] = target: T2, GST-CIB1 : F-scrambled peptide (Homo sapiens, UniProt Q99828); assay: FP scrambled-peptide counter screen, 1536-well format; format: binding; details: for Curve Class (counterscreen) / COUNTERSCREEN Curve Class: qHTS curve class
T2 construct: made in house; host or cells: BL-21 plus RIL cells (E. coli)
T2 sequence (Q99828 1-191): T1 sequence (Q99828 1-191)

[3] = confirmatory screen, negative sign = inhibitory curve
[4] = confirmatory screen, read-out: IC50 [μM] (confirmatory screen)
[5] = qHTS primary screen hits, Table S2, negative = inhibition
[6] = qHTS primary screen hits, Table S2, negative sign = inhibitory curve
[7] = qHTS primary screen hits, Table S2, read-out: IC50
[8] = counterscreen, negative sign = inhibitory curve
[9] = counterscreen, read-out: IC50 [μM] (counterscreen)
[10] = confirmatory screen, YES/NO call
[11] = confirmatory screen, negative = inhibition
[12] = confirmatory screen, read-out: CONFIRMATORY SCREEN IC50
[13] = scrambled-peptide counterscreen
[14] = scrambled-peptide counterscreen, YES/NO call
[15] = Table S3, confirmatory screen, a negative sign marks inhibitory curves
[16] = Table S3, confirmatory screen, negative = inhibition
[17] = qHTS FP screen hits, Table S2, negative = inhibition
[18] = qHTS FP screen hits, Table S2, read-out: IC50
[19] = Table S3, counterscreen, a negative sign marks inhibitory curves
[20] = Table S3, counterscreen, negative = inhibition
[21] = Table S3, counterscreen, read-out: IC50 [μM] (counterscreen)

CN(C)c1ccc(NC(=S)N/N=C2\C(=O)Nc3ccccc32)cc1.O=C(O)C(F)(F)F [NCGC00229526-01]
Efficacy (%) (confirmatory screen) ([1]; confirmatory screen): -73% | Confirm? (confirmatory screen) ([1]; confirmatory screen, YES/NO): YES | Curve Class (confirmatory screen) [1, 3]: -1.4 | IC50 [1, 4]: 10 µM | Efficacy (%) [1, 5]: -38% | Curve Class [1, 6]: -1.2 | IC50 [1, 7]: 3.5 µM | Efficacy (%) (counterscreen) ([2]; counterscreen): -44% | Curve Class (counterscreen) [2, 8]: -1.2 | IC50 [2, 9]: 22.4 µM

CNC(=S)N/N=C1\C(=O)Nc2ccccc21.O=C(O)C(F)(F)F [NCGC00229528-01]
CONFIRMATORY SCREEN Confirm? [1, 10]: YES | CONFIRMATORY SCREEN Curve Class [1, 3]: -1.4 | CONFIRMATORY SCREEN Efficacy (%) [1, 11]: -28% | IC50 [1, 12]: 14.1 µM | Efficacy (%) [1, 5]: -26% | Curve Class [1, 6]: -1.4 | IC50 [1, 7]: 7.9 µM | COUNTERSCREEN Efficacy (%) [2, 13]: -28% | COUNTERSCREEN Confirm? [2, 14]: YES | COUNTERSCREEN Curve Class [2, 13]: 4

O=C(O)C(F)(F)F.O=C1Nc2ccccc2/C1=N/NC(=S)Nc1ccc(C(=O)O)cc1 [NCGC00229530-01]
Curve Class (confirmatory screen) [1, 15]: 4 | Efficacy (%) (confirmatory screen) [1, 16]: -47% | Efficacy (%) [1, 17]: -32% | IC50 [1, 18]: 8.9 µM | Confirm? (counterscreen) ([2]; Table S3, counterscreen, YES/NO call): YES | Curve Class (counterscreen) [2, 19]: -1.2 | Efficacy (%) (counterscreen) [2, 20]: -65% | IC50 [2, 21]: 12.6 µM

CC(C)NC(=S)N/N=C1\C(=O)Nc2ccccc21.O=C(O)C(F)(F)F [NCGC00229535-01]
CONFIRMATORY SCREEN Confirm? [1, 10]: YES | CONFIRMATORY SCREEN Curve Class [1, 3]: -1.4 | CONFIRMATORY SCREEN Efficacy (%) [1, 11]: -48% | IC50 [1, 12]: 2.8 µM | Efficacy (%) [1, 17]: -24% | IC50 [1, 18]: 12.6 µM | COUNTERSCREEN Efficacy (%) [2, 13]: -45% | COUNTERSCREEN Confirm? [2, 14]: YES | COUNTERSCREEN Curve Class [2, 13]: -1.2 | IC50 ([2]; scrambled-peptide counterscreen, read-out: COUNTERSCREEN IC50): 11.2 µM

O=C(O)C(F)(F)F.O=C1Nc2ccccc2/C1=N/NC(=S)Nc1c(F)cc(F)cc1F [NCGC00229537-01]
CONFIRMATORY SCREEN Efficacy (%) ([1]; confirmatory screen): -26% | CONFIRMATORY SCREEN Curve Class ([1]; confirmatory screen): 4 | Efficacy (%) [1, 5]: -30% | Curve Class [1, 6]: -1.4 | IC50 [1, 7]: 12.6 µM | COUNTERSCREEN Efficacy (%) ([2]; counterscreen): -11% | COUNTERSCREEN Curve Class ([2]; counterscreen): 4

CCCCNC(=S)N/N=C1\C(=O)Nc2ccccc21.O=C(O)C(F)(F)F [NCGC00229539-01]
Confirm? (confirmatory screen) ([1]; Table S3, confirmatory screen, YES/NO call): YES | Curve Class (confirmatory screen) [1, 15]: -2.4 | Efficacy (%) (confirmatory screen) [1, 16]: -49% | IC50 ([1]; Table S3, confirmatory screen, read-out: IC50 [μM] (confirmatory screen)): 50.1 µM | Efficacy (%) [1, 5]: -32% | Curve Class [1, 6]: -1.2 | IC50 [1, 7]: 17.8 µM | Curve Class (counterscreen) [2, 19]: -1.2 | Efficacy (%) (counterscreen) [2, 20]: -50% | IC50 [2, 21]: 11.2 µM

O=C(O)C(F)(F)F.O=C1Nc2ccccc2/C1=N/NC(=S)Nc1ccccc1 [NCGC00229542-01]
Efficacy (%) (confirmatory screen) ([1]; confirmatory screen): -50% | Confirm? (confirmatory screen) ([1]; confirmatory screen, YES/NO): YES | Curve Class (confirmatory screen) [1, 3]: -1.4 | IC50 [1, 4]: 3.2 µM | Efficacy (%) [1, 5]: -27% | Curve Class [1, 6]: -1.4 | IC50 [1, 7]: 10 µM | Efficacy (%) (counterscreen) ([2]; counterscreen): -34% | Curve Class (counterscreen) [2, 8]: -1.2 | IC50 [2, 9]: 4.5 µM

O=C(O)C(F)(F)F.O=C1Nc2ccccc2/C1=N/NC(=S)NCc1ccccc1 [NCGC00229543-01]
Curve Class (confirmatory screen) [1, 15]: 4 | Efficacy (%) (confirmatory screen) [1, 16]: -33% | Efficacy (%) [1, 5]: -24% | Curve Class [1, 6]: -1.4 | IC50 [1, 7]: 7.9 µM | Curve Class (counterscreen) [2, 19]: 4 | Efficacy (%) (counterscreen) [2, 20]: -27%
